Test results reported in patent publication US20240366594A1, “Small Molecule Inhibitors of Formation of Neutrophil-Derived Extracellular Traps (NETosis) and Uses Thereof” (The Brigham and Women's Hospital, Inc., priority 2021, published 2024).

What was measured:
human neutrophils = assay: Citrullinated histone H3 (CitH3) NET induction in PMA-stimulated human neutrophils; assay type: cell-based; details: for NETosis (anti-CitH3 signal), comparison of class I/IIb and class IIb selective inhibitors: drugs 10, 2, 0.4, 0.08 μM 1 hour, then 1 μM PMA 3 hours, FIG. 5F
Procedure: FIGS. 1A-H. Class I/II HDACs drive NET formation • (A and B) Freshly purified human (A) or mouse (B) neutrophils were treated with the indicated HDAC inhibitors at different doses (10, 2, 0.4, 0.08 μM), or with GSK484 (10 μM), for 1 h and then stimulated with 1 μM PMA for 3 h. Cells were fixed and stained with anti-citrullinated histone H3 (CitH3) antibody. NETosis induction was measured as the level of anti-CitH3 fluorescent signal. PMA alone represents 100% of NET induction. “-”: Cells treated with the highest dose of the indicated drug but not activated with PMA. • (C and D) Human neutrophils were treated, or not, with ricolinostat or GSK484 and then stimulated with 1 μM PMA. NETosis induction was measured as area of nuclei stained with DAPI. (C) 3D reconstruction of nuclei in each treatment (grid size 7.8 μm). (D) Quantification of DAPI signal from multiple fields of view (D) (n=9 for unstimulated, not pretreated with any drug [NT] and ricolinostat, n=7 for GSK484). • (E and F) Human neutrophils were treated as in (C-D), and immunoblot analysis of the indicated proteins was performed. Relative quantification of band intensity was analyzed with ImageJ software (F). White violins plots depict the quantification of histone H3 acetylation; red violin plots depict the quantification of histone H3 citrullination. Immunoblot in E is representative of four independent experiments. Gasdermin D NT, gasdermin D N terminal; pMLKL, phospho-MLKL. • (G) Human (left) or murine (right) neutrophils were treated, or not, with ricolinostat (10 μM) and then stimulated with 1 μM PMA for 3 h. ROS production was measured by luminescence with luminol-HRP. Histograms represent the total amount of ROS produced overtime. • (H) Murine neutrophils were treated, or not, with ricolinostat (10 μM) and then stimulated with fluorescent E. coli at the indicated multiplicity of infection (MOI) for 1 h. The histogram represents the percentage of neutrophils positive for E. coli staining. Graphs show mean±SEM. Statistics were calculated using one-way ANOVA (A, B, D) and two-way ANOVA (F, G, H) (*p<0.05; **p<0.01; ****p<0.0001. n.s., not significant). Statistics refers to the comparison with neutrophils stimulated with PMA alone (A, B). Gray stars represent comparison of all experimental groups with the unstimulated control, and black stars represent comparison between drug-treated groups and cells treated with PMA only (NT) (D). See also FIGS. 5A-J.
FIGS. 5A-J. Class I/II HDACs drive NET formation. • A) Quantification of extracellular DNA released by neutrophils treated, or not, with 1 μM GSK484 for 1 h and then stimulated with 1 μM PMA for 4 hours. Unstimulated, neutrophils not treated with drugs were used as a control. • B) Freshly purified human neutrophils were treated with the indicated HDAC inhibitors at different doses (0.08, 0.4, 2 and 10 μM) for 1 hour. Extracellular DNA release was assessed in the supernatant 3 hours after PMA stimulation. The dotted line represents the amount of DNA released from neutrophils treated with PMA alone. “-”: cells treated with the highest dose of the indicated drug but not activated with PMA. • C) Freshly purified human neutrophils were stimulated for 1 h, 3 h or 5 h. Cells were fixed and stained with an anti-CitH3 antibody. NETosis induction was measured as level of anti-CitH3 fluorescent signal. 5h-PMA treatment represents 100% NET induction. • D) Representative images of freshly isolated human neutrophils treated or not with 10 μM of the indicated drugs and stimulated with 1 μM PMA for 3 hours. Cells were fixed and then stained for CitH3 (red) and nuclei (blue). Scale bar=100 μm. • E) Murine neutrophils were treated with ricolinostat or GSK484 and then stimulated with […] for 3 hours. NET induction was measured as in (C). […]

mouse neutrophils = assay: Citrullinated histone H3 (CitH3) NET induction in PMA-stimulated mouse neutrophils; assay type: cell-based
Procedure: FIGS. 1A-H. Class I/II HDACs drive NET formation • (A and B) Freshly purified human (A) or mouse (B) neutrophils were treated with the indicated HDAC inhibitors at different doses (10, 2, 0.4, 0.08 μM), or with GSK484 (10 μM), for 1 h and then stimulated with 1 μM PMA for 3 h. Cells were fixed and stained with anti-citrullinated histone H3 (CitH3) antibody. NETosis induction was measured as the level of anti-CitH3 fluorescent signal. PMA alone represents 100% of NET induction. “-”: Cells treated with the highest dose of the indicated drug but not activated with PMA. • (C and D) Human neutrophils were treated, or not, with ricolinostat or GSK484 and then stimulated with 1 μM PMA. NETosis induction was measured as area of nuclei stained with DAPI. (C) 3D reconstruction of nuclei in each treatment (grid size 7.8 μm). (D) Quantification of DAPI signal from multiple fields of view (D) (n=9 for unstimulated, not pretreated with any drug [NT] and ricolinostat, n=7 for GSK484). • (E and F) Human neutrophils were treated as in (C-D), and immunoblot analysis of the indicated proteins was performed. Relative quantification of band intensity was analyzed with ImageJ software (F). White violins plots depict the quantification of histone H3 acetylation; red violin plots depict the quantification of histone H3 citrullination. Immunoblot in E is representative of four independent experiments. Gasdermin D NT, gasdermin D N terminal; pMLKL, phospho-MLKL. • (G) Human (left) or murine (right) neutrophils were treated, or not, with ricolinostat (10 μM) and then stimulated with 1 μM PMA for 3 h. ROS production was measured by luminescence with luminol-HRP. Histograms represent the total amount of ROS produced overtime. • (H) Murine neutrophils were treated, or not, with ricolinostat (10 μM) and then stimulated with fluorescent E. coli at the indicated multiplicity of infection (MOI) for 1 h. The histogram represents the percentage of neutrophils positive for E. coli staining. Graphs show mean±SEM. Statistics were calculated using one-way ANOVA (A, B, D) and two-way ANOVA (F, G, H) (*p<0.05; **p<0.01; ****p<0.0001. n.s., not significant). Statistics refers to the comparison with neutrophils stimulated with PMA alone (A, B). […]
FIGS. 5A-J. Class I/II HDACs drive NET formation. • A) Quantification of extracellular DNA released by neutrophils treated, or not, with 1 μM GSK484 for 1 h and then stimulated with 1 μM PMA for 4 hours. […] Extracellular DNA release was assessed in the supernatant 3 hours after PMA stimulation. […] NETosis induction was measured as level of anti-CitH3 fluorescent signal. […] NET induction was measured as in (C). […]

For `O=C(CCCCCCNC(=O)c1cnc(N(c2ccccc2)c2ccccc2Cl)nc1)NO` [citarinostat], the “NET formation (level of CitH3), two independent donors” value (human neutrophils; 10, 2, 0.4, 0.08 μM for 1 h, then 1 μM PMA, FIGS. 5H, 5I) was “inhibited NET formation to a comparable extent” and the “NET formation (level of CitH3)” value (mouse neutrophils; murine neutrophils, PMA, FIG. 5J) was “inhibited NET formation to a comparable extent”.
In the case of `Nc1ccccc1NC(=O)c1ccc(CNC(=O)OCc2cccnc2)cc1` [entinostat], the “NET induction, measured as CitH3 staining” value (human neutrophils; drugs 10, 2, 0.4, 0.08 μM or GSK484 10 μM for 1 h, then 1 μM PMA 3 h, FIGS. 1A and 5D) is reported as “prevented NET release in a dose-dependent manner with an efficacy comparable with GSK484” and the “release of CitH3 (NET induction)” value (mouse neutrophils; drugs 10, 2, 0.4, 0.08 μM for 1 h, then 1 μM PMA 3 h, FIG. 1B) is reported as “no effect”.
In the case of `CCCCN(Cc1ccc(C(=O)NO)cc1)C(=O)Nc1ccccc1` [nexturastat], the “NETosis (anti-CitH3 signal), comparison of class I/IIb and class IIb selective inhibitors” value (human neutrophils) is reported as “selective class IIb targeting did not”.
For `O=C(CCCCCCC(=O)Nc1ccc([C@H]2O[C@@H](CSc3nc(-c4ccccc4)c(-c4ccccc4)o3)C[C@@H](c3ccc(CO)cc3)O2)cc1)NO` [tubacin], the “NETosis (anti-CitH3 signal), comparison of class I/IIb and class IIb selective inhibitors” value (human neutrophils) was “class I/IIb HDAC inhibition prevented NETosis”.
For `CN1CCc2c(c3ccccc3n2Cc2ccc(C(=O)NO)cc2)C1` [tubastatin A], the “NETosis (anti-CitH3 signal), comparison of class I/IIb and class IIb selective inhibitors” value (human neutrophils) was “selective class IIb targeting did not”.
